Reference: patent publication US20030203963A1, “Antimicrobial agent” (priority 2001, published 2003)

How the values were obtained:
[1] = test system: Br. thermosphacta CRA7883; assay: Bioscreen growth inhibition test; format: cell-based, Brochothrix thermosphacta; conditions: BS010420, 72 h at 25° C., APP20010213
Protocol: (§1) For broth cultures and Bioscreen testing most bacteria were grown in Brain Heart Infusion (BHI, Oxoid, pH 7.4). Lactobacillus sake A10 was grown in de Man, Rogosa, Sharpe medium ([…], Oxoid). Yeasts were grown in Sabouraud Liquid medium (SLM, Oxoid). Most bacteria were cultured at 30° C. Lactic acid bacteria were grown on solid medium in enriched CO2 atmosphere. Clostridium species were grown in Reinforced Clostridial Medium (RCM) at 37° C. anaerobically. Brochothrix thermosphacta fungi and yeasts were grown at 25° C. Fungi were cultured on Malt Extract Agar (MEA, Oxoid).
(§2) An automated Microbiology Reader Bioscreen C was used to measure growth curves of the strains in the presence and absence of APP. The Bioscreen C measures the development of turbidity (i.e. growth) kinetically by vertical photometry in 200 wells of a honeycomb microtitre plate, simultaneously. The system consists of a Bioscreen C analyser, which is an incubator and measurement unit, integrated with a PC, software (BioLink v 5.30), printer and a ‘Honeycomb 2’ cuvette multiwell plate. Growth curve data can be analysed within the BioLink software or exported to programs such as Excel.
(§3) Broth culture media were dispensed in 270 μl volumes into the wells as directed. […] (depending on the micro-organism under investigation) with readings taken every 20 minutes after the trays were shaken. […]

B. subtilis Campden = assay: Bioscreen growth inhibition test; format: cell-based, Bacillus subtilis; conditions: BS010510, 24 h at 30° C., APP20010213
Protocol: as §1, §2, §3

Ps. fluorescens = assay: Lab media at optimum temperature (summary); format: cell-based, Pseudomonas fluorescens
Protocol: as §1, §2, §3

Bacillus cereus 204 = assay: Well diffusion test; format: cell-based; conditions: 20 μl of 49.3 mg/ml (4.9%) APP sample E002012
Protocol: (§4) Seeded 10 ml agar plates of various test organisms were prepared, with inoculation of either 20 μl spore suspension or overnight broth. This gave an inoculum level of ca. 10^5-10^6 cfu/ml. After the plates had set, small wells were cut, and 20 μl of APP sample was loaded. Plates were incubated overnight at appropriate temperature and examined after 1-2 days (after which microbial growth is clearly visible) for zones of inhibition.

[2] = test system: Saccharomyces cerevisiae ATCC 9763; assay: Well diffusion test; format: cell-based; conditions: 20 μl of 49.3 mg/ml (4.9%) APP sample E002012
Protocol: as §4

[3] = test system: Listeria monocytogenes S23; assay: Well diffusion test; format: cell-based; conditions: 20 μl of 49.3 mg/ml (4.9%) APP sample E002012
Protocol: as §4

[4] = test system: Clostridium sporogenes Campden; assay: Well diffusion test; format: cell-based; conditions: 20 μl of 49.3 mg/ml (4.9%) APP sample E002012
Protocol: as §4

Micrococcus luteus = assay: Well diffusion test; format: cell-based; conditions: 20 μl of 49.3 mg/ml (4.9%) APP sample E002012
Protocol: as §4

[5] = test system: Saccharomyces carlsbergensis CRA6413; assay: Well diffusion test; format: cell-based; conditions: 20 μl of 49.3 mg/ml (4.9%) APP sample E002012
Protocol: as §4

[6] = test system: Brochothrix thermosphacta CRA7883; assay: Well diffusion test; format: cell-based; conditions: 20 μl of 49.3 mg/ml (4.9%) APP sample E002012
Protocol: as §4

Lactobacillus sake A10 = assay: Well diffusion test; format: cell-based; conditions: 20 μl of 49.3 mg/ml (4.9%) APP sample E002012
Protocol: as §4

[7] = test system: Pseudomonas fluorescens 327; assay: Well diffusion test; format: cell-based; conditions: 20 μl of 49.3 mg/ml (4.9%) APP sample E002012
Protocol: as §4

L. monocytogenes 272 [8] = assay: Test in cooked minced beef slurry; format: cell-based, Listeria monocytogenes
Protocol: 1 kg of minced beef, purchased from the local butcher, was mixed with 1 litre of BHI. 200 g portion of this meat slurry was autoclaved. When the meat had cooled, the pH was recorded (pH 6.24), and each pot was inoculated with 2.0 ml of 10^5 spores or cells and the meat re-mixed thoroughly. Each inoculated 200 g pot was distributed as 3×50 g portions. To each pot 1 ml of SDW, 5% or 10% APP (Batch No. APP20010215) was added, and the meat was again mixed thoroughly. An initial viable count was performed, the meat was incubated at 8° C. and sampled twice weekly. The pH of the cooked minced beef slurry was 6.24.

Salm Typhimurium S29 = assay: Test in cooked minced chicken slurry; format: cell-based, Salmonella Typhimurium; conditions: for Total inhibition for: minced chicken slurry at 8° C., pH 6.42, TCC010704
Protocol: (§5) 1 kg of minced chicken (mainly lean meat) was purchased from the local butcher. This was mixed with 1 litre of BHI, mixed and dispensed as 100 g samples prior to autoclaving. When still warm, the meat was re-mixed thoroughly. When cooked, the meat was inoculated with 1 ml of 10^5 spores or cells (from an overnight broth), and re-mixed. The samples were then divided into 3×25 g portions, to which 0.5 ml of filter-sterilised APP20010215 was added (as 5% or 10% stock solutions) or water. An initial viable count was taken, and the samples then incubated at 8° C. and tested twice weekly. The pH of the chicken slurry was 6.42.

L. monocytogenes 272 [9] = assay: Test in cooked minced chicken slurry; format: cell-based, Listeria monocytogenes
Protocol: as §5

[10] = cited from earlier work
Lb. sake A10 = assay: Bioscreen growth inhibition test; format: cell-based, Lactobacillus sake; conditions: for APP level causing significant inhibition / APP level causing total inhibition: BS010411, 24 h at 30° C.
Protocol: as §1, §2
Broth culture media were dispensed in 270 μl volumes into the wells as directed. Serial dilutions of a filter-sterilised APP stock solution were then dispensed into the same wells, as appropriate. The wells were inoculated with 30 μl of an appropriately diluted overnight broth culture or spore suspension, to give a final inoculum level of […]. The tests were incubated in the Bioscreen C for either 24 h at 30° C., or 72 h at 25° C. (depending on the micro-organism under investigation) with readings taken every 20 minutes after the trays were shaken. After the incubation period was complete the data were exported to Excel for analysis.

O=C1CC(CO)OC=C1O (stereo not shown) [APP, Ascopyrone P]
APP level causing significant inhibition [1]: 2000 ppm | APP level causing total inhibition [1]: 4000 ppm | APP level causing significant inhibition (B. subtilis Campden): 2000 ppm | APP level causing total inhibition (B. subtilis Campden): 3000 ppm | Total inhibition (effect on growth of target organism by 2000 ppm APP) (Ps. fluorescens): Ps. fluorescens | Sensitivity in well diffusion (zones of inhibition) (Bacillus cereus 204): sensitive | Sensitivity in well diffusion (zones of inhibition) [2]: sensitive | Sensitivity in well diffusion (zones of inhibition) [3]: sensitive | Sensitivity in well diffusion (zones of inhibition) [4]: sensitive | Sensitivity in well diffusion (zones of inhibition) (Micrococcus luteus): sensitive | Sensitivity in well diffusion (zones of inhibition) [5]: sensitive | Sensitivity in well diffusion (zones of inhibition) [6]: sensitive | Sensitivity in well diffusion (zones of inhibition) (Lactobacillus sake A10): sensitive | Sensitivity in well diffusion (zones of inhibition) [7]: sensitive | Effect on growth (L. monocytogenes 272 [8]; 2000 ppm, minced beef slurry at 8° C., pH 6.24, TCM010619): No significant inhibition by 2000 ppm | No inhibition (effect on growth of target organism by 2000 ppm APP) (L. monocytogenes 272 [8]; Cooked minced beef slurry at 8° C. pH 6.24, organism printed in brackets): (L. monocytogenes) | Total inhibition for (Salm Typhimurium S29; 1000 ppm): Total inhibition by 1000 ppm for 25 d | Total inhibition for (Salm Typhimurium S29; 2000 ppm): Total inhibition by 2000 ppm for >40 d | Total inhibition (effect on growth of target organism by 2000 ppm APP) (Salm Typhimurium S29; Cooked minced chicken slurry at 8° C. pH 6.42): S. Typhimurium | Effect on growth (L. monocytogenes 272 [9]; 2000 ppm, minced chicken slurry at 8° C., pH 6.42, TCC010704): Slight inhibition by 2000 ppm only | No inhibition (effect on growth of target organism by 2000 ppm APP) (L. monocytogenes 272 [9]; Cooked minced chicken slurry at 8° C. pH 6.42, organism printed in brackets): (L. monocytogenes) | pH at which stable ([10]; less stable at increasing pH): 1.5-5.5 | half-life ([10]; pH 11-12.5): 5 h | APP level causing significant inhibition (Lb. sake A10; APP20010213): 250 ppm | APP level causing total inhibition (Lb. sake A10; APP20010213): 500 ppm | APP level causing significant inhibition (Lb. sake A10; APP20010215): 250 ppm | APP level causing total inhibition (Lb. sake A10; APP20010215): 500 ppm | Total inhibition (effect on growth of target organism by 2000 ppm APP) (Lb. sake A10; Lab media at optimum temperature): Lb. sake
